Values after ≈ are worked out from the molar mass of the structure shown. Like-named read-outs stand apart in the source and are kept apart here.
How the values were obtained:
Assay type in all cases: cell-based
A. fumigatus GC 3092 = assay: Antifungal activity, microtiter broth dilution MIC
Description: (§1) The antifungal activity for the 1-oxorapamycins of this invention was confirmed in a standard pharmacological test procedure which measured the ability of the compound being evaluated to inhibit fungal growth. 1-Oxorapamycin (Compound I), 1-oxorapamycin 42-ester with 3-hydroxy-2-(hydroxymethyl)-2-methylpropionic acid (Compound II), and 42-O-(2-hydroxy)ethyl 1-oxorapamycin (Compound III) were evaluated as representative compounds of this invention. The procedure used and results obtained are briefly described below. A 96 U-bottom microtiter plate was filled (50 μl/well) with RPMI 1640. The compounds to be evaluated were placed in appropriate wells, and serial diluted in successive wells to provide 11 dilutions. The concentrations ranged from 64 through 0.06 μg/ml. An adjusted inoculum of fungi (50 μl) was added to each well and the plates were incubated at 35° C. for 24-48 hours. […] Nystatin and rapamycin were used for the purpose of comparison.

A. niger GC 3091 = assay: Antifungal activity, microtiter broth dilution MIC; details: 24-48 hours
Description: as §1

A. niger GC 6591 = assay: Antifungal activity, microtiter broth dilution MIC; details: 24-48 hours
Description: as §1

C. albicans GC 3064 = assay: Antifungal activity, microtiter broth dilution MIC; details: 24-48 hours
Description: as §1

C. albicans GC 3065 = assay: Antifungal activity, microtiter broth dilution MIC; details: 24-48 hours
Description: as §1

C. albicans GC 3066 = assay: Antifungal activity, microtiter broth dilution MIC; details: 24-48 hours
Description: as §1

C. krussii GC 3067 = assay: Antifungal activity, microtiter broth dilution MIC; details: RPMI 1640, 35° C., 24-48 hours
Description: as §1

C. lusitaniae GC 3068 = assay: Antifungal activity, microtiter broth dilution MIC; details: RPMI 1640, 35° C., 24-48 hours; for MIC: Clavispora lusitaniae
Description: as §1

C. parapsilosis GC 3074 = assay: Antifungal activity, microtiter broth dilution MIC; details: 24-48 hours
Description: as §1

C. parapsilosis GC 3075 = assay: Antifungal activity, microtiter broth dilution MIC; details: 24-48 hours
Description: as §1

C. parapsilosis GC 3076 = assay: Antifungal activity, microtiter broth dilution MIC; details: 24-48 hours
Description: as §1

C. pseudotropicalis 3070 = assay: Antifungal activity, microtiter broth dilution MIC; details: RPMI 1640, 35° C., 24-48 hours
Description: as §1

C. tropicalis GC 3080 = assay: Antifungal activity, microtiter broth dilution MIC; details: 24-48 hours
Description: as §1

C. tropicalis GC 3081 = assay: Antifungal activity, microtiter broth dilution MIC; details: 24-48 hours
Description: as §1

[1] = test system: 3T3 (ovarian) tumor cell line; assay: Antineoplastic activity, tumor cell growth inhibition (sulforhodamine B); details: 48 hours
Text: (§2) Antineoplastic activity for the compounds of this invention was confirmed by evaluating the antineoplastic activity of representative compounds of this invention (Compounds I-III) against six tumor cell lines in vitro. Briefly, tumor cells from six cell lines were placed in wells of a 96 well microtiter plate. The following tumor cell lines were used: 3T3 (ovarian), 3T3/H2N (ovarian—resistant to cis-platin), A431 (vulva epidermoid origin), SW620 (colon), SKBR3 (breast), and MDA-435 (breast). The tumors cells were grown in the presence of serial dilutions of the compound to be evaluated for 48 hours, and cell growth determined using a colorimetric procedure (sulforhrodamine B). The inhibition of growth was calculated compared to the number of cells at the time of test compound addition. Results are expressed as an IC50 (μg/ml); N/A indicates the compound was not evaluated against that cell line. The following IC50s was listed on Table 2.

[2] = test system: 3T3/H2N (ovarian—resistant to cis-platin) tumor cell line; assay: as above; details: 3T3/H2N cells, 48 hours
Text: as §2

[3] = test system: A431 (vulva epidermoid origin) tumor cell line; assay: as above; details: 48 hours
Text: as §2

[4] = test system: MDA-435 (breast) tumor cell line; assay: as above; details: MDA435 cells, 48 hours
Text: as §2

[5] = test system: SKBR3 (breast) tumor cell line; assay: as above; details: 48 hours
Text: as §2

[6] = test system: SW620 (colon) tumor cell line; assay: as above; details: 48 hours
Text: as §2

SH-SY5Y cells = assay: Neuroregeneration activity, neurite outgrowth; details: aphidicolin pretreated, mean ± SEM
Text: The neuroregeneration activity for the compounds of this invention was confirmed in a standard pharmacological test procedure by evaluating 1-oxo-rapamycin (Compound I) as representative compound of this invention, against SH-SY5Y cells in vitro [Gold et al., Exp Neurol 147: 269-278, 1997]. Briefly, SH-SY5Y cells were placed in 6-well plate treated with aphidicolin for 5 days followed by the test compounds using 6-well plates. For controls, wells were untreated, or treated with nerve growth factor (NGF) alone. Test wells were treated with NGF plus compound I or rapamycin. Cells were photographed at 168 hours. Analysis of neuritic lengths was performed on photographic prints using a Houston Instrument HI-PAD digitizing tablet connected to an IBM XT computer with appropriate software (Bioquant IV, R&M Biometrics, Nashville, Tenn.). Mean values for axonal areas were compared using by ANOVA (STATVIEW, Abacus Concepts, Inc., Berkeley, Calif. The following table summarizes the results that were obtained.

Molecule: CO[C@H]1CC2CC[C@@H](C)[C@@](O)(O2)C(=O)C(=O)N2CCCC[C@H]2C(=O)O[C@H]([C@H](C)CC2CC[C@@H](OC(=O)C(C)(CO)CO)[C@H](OC)C2)CC(=O)[C@H](C)/C=C(\C)[C@@H](O)[C@@H](OC)C(=O)[C@H](C)C[C@H](C)C(=O)C/C=C/C=C/1C (some centres unmarked) [Compound II, 1-Oxorapamycin 42-ester with 3-Hydroxy-2-(hydroxymethyl)-2-methylpropionic acid]
- ANTIFUNGAL ACTIVITY (MIC) (A. fumigatus GC 3092; A. fumigatus GC 3092, RPMI 1640, 35° C., 24-48 hours): 64 mg/L
- ANTIFUNGAL ACTIVITY (MIC) (A. niger GC 3091; RPMI 1640, 35° C.): 32 mg/L
- ANTIFUNGAL ACTIVITY (MIC) (A. niger GC 6591; RPMI 1640, 35° C.): 64 mg/L
- ANTIFUNGAL ACTIVITY (MIC) (C. albicans GC 3064; RPMI 1640, 35° C.): 8 mg/L
- ANTIFUNGAL ACTIVITY (MIC) (C. albicans GC 3065; RPMI 1640, 35° C.): 2 mg/L
- ANTIFUNGAL ACTIVITY (MIC) (C. albicans GC 3066; RPMI 1640, 35° C.): 2 mg/L
- ANTIFUNGAL ACTIVITY (MIC) (C. krussii GC 3067): 16 mg/L
- ANTIFUNGAL ACTIVITY (MIC) (C. lusitaniae GC 3068; C. lusitaniae GC 3068, first listing (r26)): 1 mg/L
- ANTIFUNGAL ACTIVITY (MIC) (C. lusitaniae GC 3068; C. lusitaniae GC 3068, second listing (r28)): 1 mg/L
- ANTIFUNGAL ACTIVITY (MIC) (C. parapsilosis GC 3074; RPMI 1640, 35° C.): 2 mg/L
- ANTIFUNGAL ACTIVITY (MIC) (C. parapsilosis GC 3075; RPMI 1640, 35° C.): 2 mg/L
- ANTIFUNGAL ACTIVITY (MIC) (C. parapsilosis GC 3076; RPMI 1640, 35° C.): 1 mg/L
- ANTIFUNGAL ACTIVITY (MIC) (C. pseudotropicalis 3070): 0.50 mg/L
- ANTIFUNGAL ACTIVITY (MIC) (C. tropicalis GC 3080; RPMI 1640, 35° C.): 1 mg/L
- ANTIFUNGAL ACTIVITY (MIC) (C. tropicalis GC 3081; RPMI 1640, 35° C.): 0.50 mg/L
- Antineoplastic Activity (IC50) ([1]; 3T3 cells): 0.84 mg/L
- Antineoplastic Activity (IC50) [2]: 3.0 mg/L
- Antineoplastic Activity (IC50) ([3]; A431 cells): 5.5 mg/L
- Antineoplastic Activity (IC50) [4]: 2.8 mg/L
- Antineoplastic Activity (IC50) ([5]; SKBR3 cells): 1.7 mg/L
- Antineoplastic Activity (IC50) ([6]; SW620 cells): 8.7 mg/L

Molecule: NGF: nerve growth factor (NGF), control treatment alone and co-treatment in neurite test
- Mean Neurite Lengths after 168 h, Neurite Length (SH-SY5Y cells; NGF alone (control)): 196.5 ± 7.7 μm

Molecule: CO[C@H]1CC2CC[C@@H](C)[C@@](O)(O2)C(=O)C(=O)N2CCCC[C@H]2C(=O)O[C@H]([C@H](C)CC2CC[C@@H](O)[C@H](OC)C2)CC(=O)[C@H](C)/C=C(\C)[C@@H](O)[C@@H](OC)C(=O)[C@H](C)C[C@H](C)C(=O)C/C=C/C=C/1C (some centres unmarked) [Compound I, 1-Oxo-rapamycin]
- MIC (A. fumigatus GC 3092; Aspergillus fumigatus, GC3092, read-out: ANTIFUNGAL ACTIVITY (MIC)): 64 mg/L (≈ 68.8 µM)
- MIC (A. niger GC 3091; Aspergillus niger, GC3091, RPMI 1640, 35° C.): 64 mg/L (≈ 68.8 µM)
- MIC (A. niger GC 6591; Aspergillus niger, GC6591, RPMI 1640, 35° C.): 64 mg/L (≈ 68.8 µM)
- MIC (C. albicans GC 3064; Candida albicans, GC3064, RPMI 1640, 35° C.): 8 mg/L (≈ 8.6 µM)
- MIC (C. albicans GC 3065; Candida albicans, GC3065, RPMI 1640, 35° C.): 2 mg/L (≈ 2.15 µM)
- MIC (C. albicans GC 3066; Candida albicans, GC3066, RPMI 1640, 35° C.): 2 mg/L (≈ 2.15 µM)
- MIC (C. krussii GC 3067): 16 mg/L (≈ 17.2 µM)
- MIC (C. lusitaniae GC 3068; GC3068, C. lusitaniae GC 3068, first listing (r26), read-out: ANTIFUNGAL ACTIVITY (MIC)): 0.5 mg/L (≈ 0.538 µM)
- MIC (C. lusitaniae GC 3068; GC3068, read-out: ANTIFUNGAL ACTIVITY (MIC), C. lusitaniae GC 3068, second listing (r28)): 2 mg/L (≈ 2.15 µM)
- MIC (C. parapsilosis GC 3074; Lodderomyces parapsilosis, GC3074, RPMI 1640, 35° C.): 2 mg/L (≈ 2.15 µM)
- MIC (C. parapsilosis GC 3075; Lodderomyces parapsilosis, GC3075, RPMI 1640, 35° C.): 1 mg/L (≈ 1.08 µM)
- MIC (C. parapsilosis GC 3076; Lodderomyces parapsilosis, GC3076, RPMI 1640, 35° C.): 2 mg/L (≈ 2.15 µM)
- MIC (C. pseudotropicalis 3070; Kluyveromyces marxianus): 0.5 mg/L (≈ 0.538 µM)
- MIC (C. tropicalis GC 3080; Candida tropicalis, GC3080, RPMI 1640, 35° C.): 2 mg/L (≈ 2.15 µM)
- MIC (C. tropicalis GC 3081; Candida tropicalis, GC3081, RPMI 1640, 35° C.): 0.5 mg/L (≈ 0.538 µM)
- IC50 ([1]; Mus musculus, NIH3T3, 3T3 cells): 0.89 mg/L (≈ 0.957 µM)
- IC50 [2]: 2.3 mg/L (≈ 2.47 µM)
- IC50 ([3]; Homo sapiens, A-431, A431 cells): 6.2 mg/L (≈ 6.67 µM)
- IC50 [4]: 6 mg/L (≈ 6.45 µM)
- IC50 ([5]; Homo sapiens, SK-BR-3, SKBR3 cells): 3.6 mg/L (≈ 3.87 µM)
- IC50 ([6]; Homo sapiens, SW-620, SW620 cells): 12.7 mg/L (≈ 13.7 µM)
- Mean Neurite Lengths after 168 h, Neurite Length (SH-SY5Y cells; NGF plus test compound): 233.7 ± 8.8 μm

Source: patent US6399625B1, “1-oxorapamycins” (Wyeth, priority 2000, dated 2002)
